A short description of the experiment: In vitro inhibition of human platelet aggregation in suspension.

These results are taken from BindingDB's records for doi:10.1016/j.bmcl.2004.09.002 (A.V. Bogatsky Physico-Chemical Institute of The National …, 2004).

Structures can show the parent of a compound that is named as a salt.

As a reminder, the IC50 is the midpoint of a concentration-inhibition curve. `O=C(O)CC(NC(=O)CCC(=O)Nc1ccc2c(c1)CNC2)c1ccccc1` (configuration not stated) [3-[3-(2,3-Dihydro-1H-isoindol-5-ylcarbamoyl)-propionylamino]-3-phenyl-propionic acid; hydrochloride] gave an IC50 of 270 nM.

In the case of `O=C(O)CCNC(=O)CCC(=O)Nc1ccc2c(c1)CNC2` [3-[3-(2,3-Dihydro-1H-isoindol-5-ylcarbamoyl)-propionylamino]-propionic acid; hydrochloride], half-maximal inhibition (IC50) required 2090 nM.
